Source: patent US9995734B2, “Human T cell line assay for evaluating the immunologic identity of glatiramer acetate preparations” (Mylan Inc., priority 2013, dated 2018)

System: Donor 3 COP T-Cell Lines
Test: ATP proliferation assay (CellTiter Glo), Donor 3 COP T-cell lines, incl. reactivity to non-canonical GA peptides
Type: cell-based, human
Conditions: for Reactivity (proliferation), Mean: Day 54 of culture

glatiramer acetate [GMA]
Mean, ATP proliferation assay (T-cell line 165-D3C, 3 μg/mL, Day 46, after 3 days): 80112 RLU | Reactivity (proliferation), Mean (T-cell line 165-D3C, 10 μg/mL antigen, No Antigen 8319): 57024 RLU | Mean, ATP proliferation assay (T-cell line 165-D3C, 10 μg/mL, Day 46, after 3 days): 107772 RLU | Reactivity (proliferation), Mean (T-cell line 165-D3C, 100 μg/mL antigen, No Antigen 8319): 14205 RLU | Mean, ATP proliferation assay (T-cell line 165-D3C, Day 32, 10 μg/mL): 3436 RLU | Reactivity (proliferation), Mean (T-cell line 165-D11C, 1 μg/mL antigen, No Antigen 4571): 3636 RLU | Mean, ATP proliferation assay (T-cell line 165-D11C, 1 μg/mL, Day 46, after 3 days): 15655 RLU | Reactivity (proliferation), Mean (T-cell line 165-D11C, 3 μg/mL antigen, No Antigen 4571): 6578 RLU | Mean, ATP proliferation assay (T-cell line 165-D11C, 3 μg/mL, Day 46, after 3 days): 17777 RLU | Reactivity (proliferation), Mean (T-cell line 165-D11C, 10 μg/mL antigen, No Antigen 4571): 16338 RLU | Mean, ATP proliferation assay (T-cell line 165-D11C, 10 μg/mL, Day 46, after 3 days): 56609 RLU | Reactivity (proliferation), Mean (T-cell line 165-D11C, 100 μg/mL antigen, No Antigen 4571): 14560 RLU | Mean, ATP proliferation assay (T-cell line 165-D11C, Day 32, 10 μg/mL): 416 RLU | Reactivity (proliferation), Mean (T-cell line 165-E3C, 1 μg/mL antigen, No Antigen 2797): 2954 RLU | Mean, ATP proliferation assay (T-cell line 165-E3C, 1 μg/mL, Day 46, after 3 days): 10662 RLU | Reactivity (proliferation), Mean (T-cell line 165-E3C, 3 μg/mL antigen, No Antigen 2797): 17065 RLU | Mean, ATP proliferation assay (T-cell line 165-E3C, 3 μg/mL, Day 46, after 3 days): 35044 RLU | Reactivity (proliferation), Mean (T-cell line 165-E3C, 10 μg/mL antigen, No Antigen 2797): 37602 RLU | Mean, ATP proliferation assay (T-cell line 165-E3C, 10 μg/mL, Day 46, after 3 days): 68577 RLU | Reactivity (proliferation), Mean (T-cell line 165-E3C, 100 μg/mL antigen, No Antigen 2797): 23437 RLU | Mean, ATP proliferation assay (T-cell line 165-E3C, Day 32, 10 μg/mL): 3723 RLU | Reactivity (proliferation), Mean (T-cell line 165-F3C, 1 μg/mL antigen, No Antigen 3150): 9423 RLU | Proliferation (luminescent ATP assay), Mean (T-cell line 165-F3C, 1 μg/mL antigen, Day 77 of culture, 0 μg/mL 1563): 7277 | Mean, ATP proliferation assay (T-cell line 165-F3C, 1 μg/mL, Day 46, after 3 days): 45592 RLU | Reactivity (proliferation), Mean (T-cell line 165-F3C, 3 μg/mL antigen, No Antigen 3150): 37555 RLU | Proliferation (luminescent ATP assay), Mean (T-cell line 165-F3C, 3 μg/mL antigen, Day 77 of culture, 0 μg/mL 1563): 50400 | Mean, ATP proliferation assay (T-cell line 165-F3C, 3 μg/mL, Day 46, after 3 days): 101328 RLU | Reactivity (proliferation), Mean (T-cell line 165-F3C, 10 μg/mL antigen, No Antigen 3150): 44621 RLU | Proliferation (luminescent ATP assay), Mean (T-cell line 165-F3C, 10 μg/mL antigen, Day 77 of culture, 0 μg/mL 1563): 70563 | Mean, ATP proliferation assay (T-cell line 165-F3C, 10 μg/mL, Day 46, after 3 days): 84268 RLU | Reactivity (proliferation), Mean (T-cell line 165-F3C, 100 μg/mL antigen, No Antigen 3150): 12391 RLU | Mean, ATP proliferation assay (T-cell line 165-F3C, Day 32, 10 μg/mL): 1257 RLU | Reactivity (proliferation), Mean (T-cell line 165-F6C, 1 μg/mL antigen, No Antigen 2189): 15671 RLU | Mean, ATP proliferation assay (T-cell line 165-F6C, 1 μg/mL, Day 46, after 3 days): 18511 RLU | Proliferation (luminescent ATP assay), Mean (T-cell line 165-F6C, 1.25 μg/mL antigen, Day 76 of culture, No Antigen value 517): 629 | Proliferation (luminescent ATP assay), Mean (T-cell line 165-F6C, 2.5 μg/mL antigen, Day 76 of culture, No Antigen value 517): 3,197 | Reactivity (proliferation), Mean (T-cell line 165-F6C, 3 μg/mL antigen, No Antigen 2189): 40274 RLU | Mean, ATP proliferation assay (T-cell line 165-F6C, 3 μg/mL, Day 46, after 3 days): 43634 RLU | Proliferation (luminescent ATP assay), Mean (T-cell line 165-F6C, 5 μg/mL antigen, Day 76 of culture, No Antigen value 517): 11,867 | Reactivity (proliferation), Mean (T-cell line 165-F6C, 10 μg/mL antigen, No Antigen 2189): 38921 RLU | Proliferation (luminescent ATP assay), Mean (T-cell line 165-F6C, 10 μg/mL antigen, Day 76 of culture, No Antigen value 517): 20,141 | Mean, ATP proliferation assay (T-cell line 165-F6C, 10 μg/mL, Day 46, after 3 days): 34321 RLU | Reactivity (proliferation), Mean (T-cell line 165-F6C, 100 μg/mL antigen, No Antigen 2189): 3690 RLU | Mean, ATP proliferation assay (T-cell line 165-F6C, Day 32, 10 μg/mL): 1489 RLU | response in proliferation assay (all seven Donor 3 COP T-cell lines tested, Day 54): responded well | reactivity in confirmatory ATP proliferation assay (six Donor 3 COP lines, Day 32, 10 μg/mL (Table 23)): showed reactivity
